Results on two compounds are retold here after US20120231482A1, “METHOD, KIT OR DIAGNOSTIC FOR THE DETECTION OF REAGENTS WHICH INDUCE ALTERED CONTRACTILITY” (THE JOHNS HOPKINS UNIVERSITY, priority 2009, published 2012).

The subject of assay [1] is skeletal muscle. The assay can be described thus: Steady-state force-[Ca2+]i relations of skeletal muscle. It counts as cell-based, rat. An excerpt:
FIG. 6. MLC1 Cys81 necessary for increase in Fmax induced by treatment with HNO donors. (a) Sequence alignment comparing isoforms of rat cardiac (SEQ ID NO:16) and skeletal MLC1 (SEQ ID NO:17) in the region surrounding cardiac Cys81. (b) Steady-state force-[Ca^2+]i relations in control (o) versus NCA-treated (•) from cardiac or skeletal trabeculae indicating loss of increase in maximum force with loss of Cys81 in skeletal isoform with NCA (n=5, each group). (c) 2D Gel shift assay (non-reduced, NR and reduced, DTT) using 10 μg of skeletal or cardiac myofibrils indicating loss of higher molecular weight forms of MLC1 in skeletal HNO treated preparations while maintaining higher molecular weight form of TM (n=3).
To determine if MLC1 Cys81 is involved in the increased maximum force production, the effect of HNO donors was investigated in skeletal muscle preparations. Skeletal muscle isoforms of myofilament proteins contain all of the potential target Cys except for MLC1, which lacks the candidate site Cys81 providing a natural mutant sequence (FIG. 6A). […] The same insensitivity of Fmax to AS was also observed in skinned skeletal muscles (data not shown).

Assay [2] has as its target T1, myosin heavy chain and light chain 1 (Rattus norvegicus, UniProt P02563+P16409).
T1 construct: 1 μg of rat cardiac myofibrils treated with HNO donors or control compounds; tissue Pel Freez Biologicals; host or cells: myofibrils from frozen rat ventricles
As to the kind of experiment: Gel shift assay, reducing/non-reducing western blot of cardiac myofibrils. It counts as biochemical. To be noted: non-reducing; lost with 5 mM DTT. On the procedure:
(§1) FIG. 4. Validation and characterizations of HNO modifications. 1 μg of rat cardiac myofibrils treated with HNO donors or control compounds were separated under reducing or nonreducing conditions and western blots probed for candidate proteins tropomyosin, actin, myosin heavy chain, myosin light chain 1 (n=4). […] Silver stained gel analysis indicated a protein band with […] gel mobility that was lost with DTT.
(§2) Gel shift assay. 10 μg of rat myofibrils/treatment were diluted to 0.5 μg/μl in HEN including 0.1% (w/v) SDS and exposed to a treatment for 20 min at 37° C. Samples were diluted to 0.1 ug/ul in 1×LSD sample buffer, treated with 0, 5 or 100 mM DTT and separated by SDS PAGE. Proteins were silver stained or transferred to nitrocellulose and immunoblotted with primary antibodies for tropomyosin sarcomeric (CH1, Sigma-Aldrich Co., St. Louis, Mo., USA), actin (AC-40, Sigma-Aldrich Co., St. Louis, Mo., USA), myosin light chain 1 (MLM527, Abcam, Cambridge, Mass., USA) or myosin heavy chain (3-48, Abcam, Cambridge, Mass., USA). For some silver stained gel bands of interest in-gel digestion was done following the protocol outlined in Shevchenko et al.. Gel slices of interest were excised from the gels cut into 1 mm^3 pieces. Silver stained gel pieces were destained in 1:1(v/v) 30 mM Potassium ferricyanide and 100 mM Sodium thiosulfate and wash three times with ddH2O. […]
A general note: In EMSA bound probe runs differently from free probe, usually more slowly.

The target of assay [3] is T2, tropomyosin (Rattus norvegicus, UniProt P04692).
T2 construct: Rat myofibrillar preparations, as described in [7], were obtained from frozen ventricles (Pel Freez Biologicals); tissue Pel Freez Biologicals; host or cells: myofibrils from frozen rat ventricles
T2 sequence (P04692 whole entry): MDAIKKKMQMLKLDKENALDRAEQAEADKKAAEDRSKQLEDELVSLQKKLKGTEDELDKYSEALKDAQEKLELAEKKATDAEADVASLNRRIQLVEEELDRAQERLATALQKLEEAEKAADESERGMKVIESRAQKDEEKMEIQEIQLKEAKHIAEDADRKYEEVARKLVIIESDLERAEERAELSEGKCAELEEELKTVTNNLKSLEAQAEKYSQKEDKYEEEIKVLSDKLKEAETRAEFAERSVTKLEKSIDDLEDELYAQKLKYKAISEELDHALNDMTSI
The assay is described as above. It counts as biochemical. To be noted: non-reducing; lost with 5 mM DTT. How it is done: as §1
FIG. 5. Evaluation of the interaction between actin and tropomyosin with NCA treatment. Purified rabbit skeletal tropomyosin (0.03 μg) and isolated rat cardiac myofibrils (1 μg) were treated with NCA or AS and evaluated by 1D non-reducing western blot probing for tropomyosin (A) and actin (B) (n=3). […] (C) Fluorescent DIGE analysis of samples from A and B independent labeled indicates NCA specific band (green) above purified TM (blue) and below AS treated myofibrils (red) (n=3). (D) MS analysis of the same gel region identified both tropomyosin and actin in non-reduced lane but not with DTT treatment (n=2).
as §2, with “ddH2O. Gel pieces were dehydrated in 100% acetonitrile and reswelled in 10 mM DTT and incubated at 55° C. for 1 hour. After the DTT solution was removed, a solution of 55 mM iodoacetimide was added and gel slices were incubated at room temperature protected from light. Gel slices were then washed 3 times with 50% (v/v) ACN, 25 mM (NH4)HCO3 and then fully dehydrated in 100% ACN and dried in a speed vac. Gel pieces were reswelled in a 12.5 ng/μL trypsin (Promega, Madison Wis. USA) solution containing 25 mM (NH4)HCO3 and incubated at 37° C. for >16 hours. Digested peptides were extracted by addition of 5% (v/v) formic acid and incubation for 15 min followed by addition of an equal volume of 100% ACN and 15 min incubation, this step was repeated and the extracts were combined.” for “ddH2O.”

T1 sequence (P02563 whole entry): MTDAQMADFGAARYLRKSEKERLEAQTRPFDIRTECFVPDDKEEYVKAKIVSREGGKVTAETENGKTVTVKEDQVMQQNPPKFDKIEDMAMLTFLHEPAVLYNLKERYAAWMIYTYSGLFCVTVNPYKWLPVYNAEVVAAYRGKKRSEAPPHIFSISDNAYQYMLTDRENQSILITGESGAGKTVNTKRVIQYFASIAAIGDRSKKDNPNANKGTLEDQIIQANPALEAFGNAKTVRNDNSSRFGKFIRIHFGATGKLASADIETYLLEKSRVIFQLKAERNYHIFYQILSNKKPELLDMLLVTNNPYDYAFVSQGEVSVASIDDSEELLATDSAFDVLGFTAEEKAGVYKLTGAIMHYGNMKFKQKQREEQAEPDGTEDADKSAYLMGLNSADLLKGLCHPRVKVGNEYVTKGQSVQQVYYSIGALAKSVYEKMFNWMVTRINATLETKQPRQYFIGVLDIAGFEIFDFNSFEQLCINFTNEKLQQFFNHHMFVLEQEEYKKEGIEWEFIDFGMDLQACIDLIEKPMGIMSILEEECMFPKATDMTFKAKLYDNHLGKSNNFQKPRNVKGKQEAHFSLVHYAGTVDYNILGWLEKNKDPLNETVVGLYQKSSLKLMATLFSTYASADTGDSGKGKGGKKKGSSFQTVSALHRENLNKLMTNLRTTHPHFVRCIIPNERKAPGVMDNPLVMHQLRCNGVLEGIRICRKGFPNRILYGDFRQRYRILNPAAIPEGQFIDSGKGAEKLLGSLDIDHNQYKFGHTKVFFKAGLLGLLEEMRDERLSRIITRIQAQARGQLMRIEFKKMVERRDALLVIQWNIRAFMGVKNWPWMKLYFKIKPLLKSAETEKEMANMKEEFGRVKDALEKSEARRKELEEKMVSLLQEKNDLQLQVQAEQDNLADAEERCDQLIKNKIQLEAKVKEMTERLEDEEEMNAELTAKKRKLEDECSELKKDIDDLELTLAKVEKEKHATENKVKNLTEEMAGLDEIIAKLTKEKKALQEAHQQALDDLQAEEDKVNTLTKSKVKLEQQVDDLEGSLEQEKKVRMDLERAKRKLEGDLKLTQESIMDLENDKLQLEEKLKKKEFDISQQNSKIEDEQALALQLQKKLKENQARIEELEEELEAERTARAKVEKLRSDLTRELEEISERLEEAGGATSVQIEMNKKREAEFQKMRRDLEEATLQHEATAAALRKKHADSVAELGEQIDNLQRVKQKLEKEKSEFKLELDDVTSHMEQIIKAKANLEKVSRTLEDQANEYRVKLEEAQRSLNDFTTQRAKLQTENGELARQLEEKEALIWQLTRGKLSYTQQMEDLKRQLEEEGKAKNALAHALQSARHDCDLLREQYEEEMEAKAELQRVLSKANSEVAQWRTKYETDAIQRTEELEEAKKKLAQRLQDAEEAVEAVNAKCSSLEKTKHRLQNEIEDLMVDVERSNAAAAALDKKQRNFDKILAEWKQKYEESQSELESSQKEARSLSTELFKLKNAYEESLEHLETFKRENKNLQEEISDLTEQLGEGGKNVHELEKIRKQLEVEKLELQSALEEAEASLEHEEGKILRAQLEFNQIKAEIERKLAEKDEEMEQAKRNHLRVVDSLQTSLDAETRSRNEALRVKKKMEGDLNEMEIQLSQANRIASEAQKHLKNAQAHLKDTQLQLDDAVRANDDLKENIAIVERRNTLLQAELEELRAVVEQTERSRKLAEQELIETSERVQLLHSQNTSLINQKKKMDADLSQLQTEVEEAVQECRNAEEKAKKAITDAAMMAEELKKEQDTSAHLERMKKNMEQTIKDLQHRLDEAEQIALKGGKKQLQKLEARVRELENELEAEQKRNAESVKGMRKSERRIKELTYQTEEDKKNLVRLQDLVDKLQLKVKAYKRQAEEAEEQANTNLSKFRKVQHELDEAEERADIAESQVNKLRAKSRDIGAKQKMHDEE
T1 sequence (P16409 2-200 limits assumed): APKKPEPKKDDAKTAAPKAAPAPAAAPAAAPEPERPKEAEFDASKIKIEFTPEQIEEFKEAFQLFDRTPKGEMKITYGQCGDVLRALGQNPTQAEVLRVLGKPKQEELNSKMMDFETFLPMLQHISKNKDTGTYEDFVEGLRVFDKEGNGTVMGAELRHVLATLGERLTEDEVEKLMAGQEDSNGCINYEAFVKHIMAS
T1 sequence (P08733 2-166 partner limits assumed): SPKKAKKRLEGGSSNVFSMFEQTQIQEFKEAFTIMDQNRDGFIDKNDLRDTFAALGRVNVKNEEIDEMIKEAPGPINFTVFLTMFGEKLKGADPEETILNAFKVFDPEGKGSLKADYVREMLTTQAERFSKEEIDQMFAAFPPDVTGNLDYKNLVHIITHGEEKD

For the compound `[Na+].[Na+].[O-][N+]([O-])=NO` [AS, Angeli's Salt], in assay [1] (skinned skeletal muscles, AS, data not shown), the Fmax result was “insensitivity”. Further, the MLC1 homodimer population in assay [2] is around 50 kDa.
As for `CC(=O)OC1(N=O)CCCCC1` [NCA, 1-nitrosocyclohexylacetate], the “tropomyosin molecular weight shift” value in assay [3] is “higher molecular weight species that was specific for NCA treatment”. Further, in assay [1] (skeletal muscle, NCA 25 μmol/L), the Ca50 was determined as 0.8 ± 0.1 µM, the Fmax is given as 33±3.8 mN/mm^2 and the Hill is on record as 4.36±0.81. Besides, the MLC1 homodimer population in assay [2] is given as around 50 kDa.
